According to US9415055B2, “Cyclic amines” (H. Lundbeck A/S, priority 2012, dated 2016):

Biological target: P2X7 receptor (Homo sapiens (Human), UniProt Q99572)
Assay: P2X7 FLIPR assay: antagonism of BzATP response in 293 HEK cells stably expressing P2X7 receptor
Type: cell-based
Conditions: FLIPR fluorescence (Fluo-4), agonist BzATP, 293 HEK cells stably transfected with P2X7 receptor
How it was run: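 Antagonist IC50 derived from FLIPR Tetra Fluo-4 calcium signal evoked by BzATP. Compound pre-incubation was 30 min at room temperature on P2X7-expressing HEK293 cells, seeded 24 h before in low-serum medium and dye-loaded 30 min at 37 °C then 30 min at RT.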

P2X7 receptor, sequence (Q99572 whole entry): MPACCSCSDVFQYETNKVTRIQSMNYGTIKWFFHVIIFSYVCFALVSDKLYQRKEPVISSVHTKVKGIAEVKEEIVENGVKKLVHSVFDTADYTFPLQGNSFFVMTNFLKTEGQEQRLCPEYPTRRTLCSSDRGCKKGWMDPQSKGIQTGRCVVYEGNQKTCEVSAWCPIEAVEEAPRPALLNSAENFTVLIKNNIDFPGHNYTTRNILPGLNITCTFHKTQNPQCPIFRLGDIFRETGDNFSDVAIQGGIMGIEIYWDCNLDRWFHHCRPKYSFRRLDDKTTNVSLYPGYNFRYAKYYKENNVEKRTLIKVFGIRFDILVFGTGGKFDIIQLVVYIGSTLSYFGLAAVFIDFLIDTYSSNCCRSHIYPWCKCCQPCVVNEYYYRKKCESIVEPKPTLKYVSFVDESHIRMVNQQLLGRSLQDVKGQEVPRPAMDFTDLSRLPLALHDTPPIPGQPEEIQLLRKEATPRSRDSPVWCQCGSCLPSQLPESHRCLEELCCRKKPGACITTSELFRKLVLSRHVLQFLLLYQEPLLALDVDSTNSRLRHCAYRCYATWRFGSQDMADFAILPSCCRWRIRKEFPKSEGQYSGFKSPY

SMILES | IC50 [nM]
Cc1ncc(C(CNC(=O)c2cccc(Cl)c2Cl)N2CCC(F)CC2)cn1 (single isomer, unassigned; (-)) [(−)2,3-dichloro-N-[2-(4-fluoro-1-piperidyl)-2-(2-methylpyrim] [(−)2,3-dichloro-N-(2-(4-fluoropiperidin-1-yl)-2-(2-methylpyrimidin-5-yl)ethyl)benzamide] | 14
Cc1ncc(C(CNC(=O)c2c(F)cccc2Cl)N2CCC(F)(F)CC2)cn1 (single isomer, unassigned; (+)) [(+)2-chloro-N-[2-(4,4-difluoro-1-piperidyl)-2-(2-methylpyrim] [(+)2-chloro-6-fluoro-N-(2-(4,4-difluoropiperidin-1-yl)-2-(2-methylpyrimidin-5-yl)ethyl)benzamide] | 19
CS(=O)(=O)c1ccc(Cl)c(C(=O)NCC(c2ccc(C(F)(F)F)nc2)N2CCOCC2)c1 (single isomer, unassigned; (+)) [(+)2-chloro-5-methylsulfonyl-N-[2-morpholino-2-[6-(trifluoro] [(+)2-chloro-5-(methylsulfonyl)-N-(2-morpholino-2-(6-(trifluoromethyl)pyridin-3-yl)ethyl)benzamide] | 71
Cc1ncc(C(CNC(=O)c2cccc(Cl)c2Cl)N2CCOCC2)cn1 (stereo not shown) [2,3-dichloro-N-[2-(2-methylpyrimidin-5-yl)-2-morpholino-ethy] [2,3-Dichloro-N-[2-(2-methylpyrimidin-5-yl)-2-motpholino-ethyl]benzamide] | 21
COc1ccc(C(CNC(=O)c2cccc(Cl)c2Cl)N2CCOCC2)cc1 (stereo not shown) [2,3-Dichloro-N-[2-(4-methoxy-phenyl)-2-morpholin-4-yl-ethyl]-benzamide] | 13
O=C(NCC(c1ccc(C(F)F)nc1)N1CCC(F)(F)CC1)c1cccc(Cl)c1Cl (single isomer, unassigned; (+)) [(+)2,3-dichloro-N-[2-[6-(difluoromethyl)-3-pyridyl]-2-(4,4-d] [(+)2,3-dichloro-N-(2-(2-(difluoromethyl)pyridin-5-yl)-2-(4,4-difluoropiperidin-1-yl)ethyl)benzamide] | 2.4
COc1cccc(C(=O)NCC(c2ccc(Cl)cc2)N2CCOCC2)c1Cl (single isomer, unassigned; (+)) [(+)2-chloro-N-[2-(4-chlorophenyl)-2-morpholino-ethyl]-3-meth] [(+)2-chloro-N-(2-(4-chlorophenyl)-2-morpholinoethyl)-3-methoxybenzamide] | 4.2
CC1(C)CCN(C(CNC(=O)c2cccc(F)c2Cl)c2cnc(C(F)(F)F)nc2)CC1 (stereo not shown) [2-chloro-N-[2-(4,4-dimethyl-1-piperidyl)-2-[2-(trifluoromethyl)pyrimidin-5-yl]ethyl]-3-fluoro-benzamide] | 3600
CCc1ncc(C(CNC(=O)c2c(Cl)cccc2Cl)N2CCC(F)(F)CC2)cn1 (single isomer, unassigned; (+)) [(+)2,6-dichloro-N-[2-(4,4-difluoro-1-piperidyl)-2-(2-ethylpy] [(+2,6-dichloro-N-(2-(4,4-difluoropiperidin-1-yl)-2-(2-ethylpyrimidin-5-yl)ethyl)benzamide] | 15
Cc1ncc(C(CNC(=O)c2ccccc2Cl)N2CCC(F)(F)CC2)cn1 (single isomer, unassigned; (+)) [(+)2-chloro-N-[2-(4,4-difluoro-1-piperidyl)-2-(2-methylpyrim] [(+)2-chloro-N-[2-(4,4-difluoro-1-piperidyl)-2-(2-methylpyrimidin-5-yl)ethyl]benzamide] | 13
O=C(NCC(c1ccncc1)N1CCOCC1)c1cccc(Cl)c1Cl (stereo not shown) [2,3-Dichloro-N-(2-morpholin-4-yl-2-pyridin-4-yl-ethyl)-benzamide] | 750
O=C(NCC(c1ccc(C(F)(F)F)nc1)N1CCC(F)(F)CC1)c1cccc(Cl)c1Cl (stereo not shown) [2,3-Dichloro-N-[2-(4,4-difluoro-1-piperidyl)-2-[6-(trifluoromethyl)-3-pyridyl]ethyl]benzamide] | 1.3
Cc1ncc(C(CNC(=O)c2c(F)cccc2F)N2CCOCC2)cn1 (stereo not shown) [2,6-difluoro-N-(2-(2-methylpyrimidin-5-yl)-2-morpholinoethyl)benzamide] | 1100
CCc1ncc(C(CNC(=O)c2cccc(Cl)c2Cl)N2CCC(F)(F)CC2)cn1 (single isomer, unassigned; (+)) [(+)2,3-dichloro-N-[2-(4,4-difluoro-1-piperidyl)-2-(2-ethylpy] [(+2,3-dichloro-N-(2-(4,4-difluoropiperidin-1-yl)-2-(2-ethylpyrimidin-5-yl)ethyl)benzamide] | 2.6
O=C(NCC(c1ccc(C(F)(F)F)nc1)N1CCOCC1)c1c(F)cccc1Cl (single isomer, unassigned; (+)) [(+)2-chloro-6-fluoro-N-[2-morpholino-2-[6-(trifluoromethyl)-] [(+)2-chloro-6-fluoro-N-(2-morpholino-2-(6-(trifluoromethyl)pyridin-3-yl)ethyl)benzamide] | 32
CS(=O)(=O)c1ccc(Cl)c(C(=O)NCC(c2ccc(Cl)cc2)N2CCOCC2)c1 (single isomer, unassigned; (+)) [(+)2-chloro-N-[2-(4-chlorophenyl)-2-morpholino-ethyl]-5-meth] [(+)2-chloro-N-(2-(4-chlorophenyl)-2-morpholinoethyl)-5-(methylsulfonyl)benzamide] | 180
Cc1ncc(C(CNC(=O)c2c(F)cccc2Cl)N2CCCOCC2)cn1 (stereo not shown) [2-chloro-6-fluoro-N-(2-(2-methylpyrimidin-5-yl)-2-(1,4-oxazepan-4-yl)ethyl)benzamide] | 820
Cc1ncc(C(CNC(=O)c2c(Cl)cccc2Cl)N2CCC(F)CC2)cn1 (single isomer, unassigned; (+)) [(+)2,6-dichloro-N-[2-(4-fluoro-1-piperidyl)-2-(2-methylpyrim] [(+)2,6-dichloro-N-(2-(4-fluoropiperidin-1-yl)-2-(2-methylpyrimidin-5-yl)ethyl)benzamide] | 9.6
COc1ccc(C(CNC(=O)c2cccc(Cl)c2Cl)N2CCC(F)(F)CC2)cc1 (stereo not shown) [2,3-dichloro-N-[2-(4,4-difluoro-1-piperidyl)-2-(4-methoxyphenyl)ethyl]benzamide] | 0.6

Next, values leading:

IC50 [nM] | SMILES
2.2 | COc1ccc(C(=O)NCC(c2cnc(C(F)(F)F)nc2)N2CCC(F)(F)CC2)c(Cl)c1 (single isomer, unassigned; (-)) [(−)2-chloro-N-[2-(4,4-difluoro-1-piperidyl)-2-[2-(trifluorom] [(−)2-chloro-4-methoxy-N-(2-(4,4-difluoropiperidin-1-yl)-2-(2-(trifluoromethyl)pyrimidin-5-yl)ethyl)benzamide]
6.1 | O=C(NCC(c1ccc(C(F)(F)F)nc1)N1CCOCC1)c1c(F)cccc1Cl (single isomer, unassigned; (-)) [(−)2-chloro-6-fluoro-N-(2-morpholino-2-(6-(trifluoromethyl)p] [(−)2-chloro-6-fluoro-N-(2-morpholino-2-(6-(trifluoromethyl)pyridin-3-yl)ethyl)benzamide]
6.9 | O=C(NCC(c1cnc(C(F)(F)F)nc1)N1CCC(F)(F)CC1)c1c(Cl)cccc1Cl (single isomer, unassigned; (-)) [(−)2,6-dichloro-N-[2-(4,4-difluoro-1-piperidyl)-2-[2-(triflu] [(−)2,6-dichloro-N-(2-(4,4-difluoropiperidin-1-yl)-2-(2-(trifluoromethyl)pyrimidin-5-yl)ethyl)benzamide]
500 | COc1ccc(C(CNC(=O)c2ccccc2C)N2CCOCC2)cc1 (stereo not shown) [N-[2-(4-Methoxy-phenyl)-2-morpholin-4-yl-ethyl]-2-methyl-benzamide]
2 | Cc1ccccc1C(=O)NCC(c1ccc(Cl)cc1)N1CCC(F)(F)CC1 (stereo not shown) [N-[2-(4-Chloro-phenyl)-2-(4,4-difluoro-piperidin-1-yl)-ethyl]-2-methyl-benzamide]
45 | Cc1ncc(C(CNC(=O)c2ccccc2Cl)N2CCC(F)CC2)cn1 (single isomer, unassigned; (-)) [(−)2-chloro-N-[2-(4-fluoro-1-piperidyl)-2-(2-methylpyrimidin] [(−)2-chloro-N-(2-(4-fluoropiperidin-1-yl)-2-(2-methylpyrimidin-5-yl)ethyl)benzamide]
9.3 | Cc1ccccc1C(=O)NC[C@H](c1ccc(Cl)cc1)N1CCOCC1 [N-[(S)-2-(4-Chloro-phenyl)-2-morpholin-4-yl-ethyl]-2-methyl-benzamide]
51 | CS(=O)(=O)c1ccc(Cl)c(C(=O)NCC(c2ccc(C(F)(F)F)nc2)N2CCOCC2)c1 (single isomer, unassigned; (-)) [(−)2-chloro-5-methylsulfonyl-N-[2-morpholino-2-[6-(trifluoro] [(−)2-chloro-5-(methylsulfonyl)-N-(2-morpholino-2-(6-(trifluoromethyl)pyridin-3-yl)ethyl)benzamide]
22 | Cc1ncc(C(CNC(=O)c2c(Cl)cccc2Cl)N2CCC(F)(F)CC2)cn1 (single isomer, unassigned; (-)) [(−)2,6-dichloro-N-[2-(4,4-difluoro-1-piperidyl)-2-(2-methylp] [(−)2,6-dichloro-N-(2-(4,4-difluoropiperidin-1-yl)-2-(2-methylpyrimidin-5-yl)ethyl)benzamide]
47 | COc1ccc(C(CNC(=O)c2cccc(C)c2C)N2CCOCC2)cc1 (stereo not shown) [N-[2-(4-Methoxy-phenyl)-2-morpholin-4-yl-ethyl]-2,3-dimethyl-benzamide]
120 | Cc1ncc(C(CNC(=O)c2ccccc2Cl)N2CCCCC2)cn1 (single isomer, unassigned; (-)) [(−)2-chloro-N-[2-(2-methylpyrimidin-5-yl)-2-(1-piperidyl)eth] [(−)2-chloro-N-(2-(2-methylpyrimidin-5-yl)-2-(piperidin-1-yl)ethyl)benzamide]
5.7 | O=C(NCC(c1ccc(C(F)(F)F)nc1)N1CCC(F)(F)CC1)c1cccc(F)c1Cl (single isomer, unassigned; (-)) [(−)2-chloro-N-[2-(4,4-difluoro-1-piperidyl)-2-[6-(trifluorom] [(−)2-chloro-N-(2-(4,4-difluoropiperidin-1-yl)-2-(2-(trifluoromethyl)pyridin-5-yl)ethyl)-3-fluorobenzamide]
